Results: patent US9120746B2, “Crystalline form of a 3-phenoxymethylpyrrolidine compound” (Theravance Biopharma R&D IP, LLC, priority 2010, dated 2015)
Where a name gives a salt, the structure may show the parent alone. Read-outs that look alike come from different tables or passages of the source.

Key:
[1] = Deliquescence on exposure to atmospheric moisture; format: physicochemical; conditions: exposed to atmospheric moisture
Aqueous solubility = format: physicochemical; conditions: read-out: SOLUBILITY CONCENTRATION
From the text: The crystalline hydrochloride salt of the invention has very good aqueous solubility in a wide pH range: […]

[2] = Solution stability (HPLC peak area); format: physicochemical; conditions: for Change in HPLC Peak Area: 10 μm/mL, 3 days at 40° C.
[3] = Dynamic moisture sorption (DMS) assessment; format: physicochemical; conditions: exposed to up to 85% relative humidity, 25° C.
Experimental: A dynamic moisture sorption (DMS) assessment (also known as a moisture sorption-desorption profile) was performed for the crystalline hydrochloride salt of the invention using a VTI atmospheric microbalance, SGA-100 system (VTI Corp., Hialeah, Fla. 33016). A sample size of approximately 2.73 mg was used and the humidity was set at the ambient value at the start of the analysis. The DMS analysis consisted of a scan rate of 5% relative humidity/step over the full humidity range of 2% relative humidity to 90% relative humidity. The DMS run was performed isothermally at 25° C.

[4] = Thermal analysis (DSC, TGA); format: physicochemical
Experimental: Differential scanning calorimetry (DSC) was performed using a TA Instruments
Model Q-100 module with a Thermal Analyst controller. Data were collected and analyzed using TA Instruments Thermal Solutions software. A 1.22 mg sample of the crystalline hydrochloride salt of the invention was accurately weighed into a covered aluminum pan. After a 5 minute isothermal equilibration period at 22° C., the sample was heated using a linear heating ramp of 10° C./min from 22° C. to 250° C.

hSERT [5] = molecular target: T1, hSERT (Homo sapiens, UniProt P31645); test: hSERT membrane radioligand binding assay (3H-citalopram); conditions: 1.0 nM 3H-citalopram, HEK-293 hSERT membranes; read-out: SERT pKi (converted)
T1 construct: expressed in transfected cells; host or cells: HEK-293 derived cell line, stably transfected
T1 sequence (P31645 whole entry): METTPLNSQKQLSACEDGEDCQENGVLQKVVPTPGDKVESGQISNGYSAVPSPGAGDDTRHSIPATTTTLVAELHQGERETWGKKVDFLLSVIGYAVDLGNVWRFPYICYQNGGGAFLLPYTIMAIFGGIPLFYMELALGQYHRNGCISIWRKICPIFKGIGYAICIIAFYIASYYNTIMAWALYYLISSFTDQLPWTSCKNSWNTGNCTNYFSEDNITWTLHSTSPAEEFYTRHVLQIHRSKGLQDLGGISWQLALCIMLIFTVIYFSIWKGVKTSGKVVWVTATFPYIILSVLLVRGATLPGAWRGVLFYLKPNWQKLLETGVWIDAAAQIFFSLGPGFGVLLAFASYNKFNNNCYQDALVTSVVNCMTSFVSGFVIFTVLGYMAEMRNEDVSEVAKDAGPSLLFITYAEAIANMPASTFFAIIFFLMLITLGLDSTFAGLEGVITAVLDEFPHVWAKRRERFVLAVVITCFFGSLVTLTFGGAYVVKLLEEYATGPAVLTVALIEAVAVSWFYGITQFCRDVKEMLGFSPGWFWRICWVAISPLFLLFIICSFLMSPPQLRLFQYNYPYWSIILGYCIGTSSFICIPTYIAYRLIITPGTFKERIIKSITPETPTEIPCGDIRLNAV
Experimental: (§1) Membrane radioligand binding assays were used to measure inhibition of labeled ligand (^3H-citalopram or ^3H-nisoxetine or ^3H-WIN35428) binding to membranes prepared from cells expressing the respective human recombinant transporter (hSERT or hNET or hDAT) in order to determine the pKi values of test compounds at the transporters.
(§2) Recombinant human embryonic kidney (HEK-293) derived cell lines stably transfected with hSERT or hNET, respectively, were grown in Dulbecco's Modified Eagle's Medium (DMEM) medium supplemented with 10% dialyzed FBS (for hSERT) or FBS (for hNET), 100 μg/ml penicillin, 100 μg/ml streptomycin, 2 mM L-glutamine and 250 μg/ml of the aminoglycoside antibiotic G418, in a 5% CO2 humidified incubator at 37° C. When cultures reached 80% confluence, the cells were washed thoroughly in PBS (without Ca^2+ and Mg^2+) and lifted with 5 mM EDTA in PBS. […] Protein concentration of the membrane suspension was determined using a Bio-Rad Bradford Protein Assay kit. […]
(§3) Stock solutions (10 mM in DMSO) of test compound were prepared and serial dilutions made using Dilution Buffer (50 mM Tris-HCl, 120 mM NaCl, 5 mM KCl, pH 7.4, 0.1% BSA, 400 μM ascorbic acid). Non-specific radioligand binding was determined in the presence of 1 μM duloxetine, 1 μM desipramine or 10 μM GBR12909 (each in Dilution Buffer) for the hSERT, hNET or hDAT assays, respectively. […]

hSERT [6] = molecular target: T1, hSERT; test: hSERT neurotransmitter uptake assay (3H-5-HT); format: cell-based; conditions: 3H-5-HT 20 nM, HEK-293 hSERT cells; read-out: serotonin reuptake inhibition pIC50 (converted)
Experimental: (§4) Neurotransmitter uptake assays were used to measure inhibition of ^3H-serotonin (^3H-5-HT), ^3H-norepinephrine (^3H-NE), and ^3H-dopamine (^3H-DA) uptake into cells expressing the respective transporter (hSERT, hNET or hDAT) in order to determine the pIC50 values of test compounds at the transporters.
(§5) HEK-293 derived cell lines stably-transfected with hSERT, hNET, or hDAT, respectively, were grown in DMEM medium supplemented with 10% dialyzed FBS (for hSERT) or FBS (for hNET and hDAT), 100 μg/ml penicillin, 100 μg/ml streptomycin, 2 mM L-glutamine and 250 μg/ml of the aminoglycoside antibiotic G418 (for hSERT and hNET) or 800 ug/ml (for hDAT), in a 5% CO2 humidified incubator at 37° C. When cultures reached 80% confluence, the cells were washed thoroughly in PBS (without Ca^2+ and Mg^2+) and lifted with 5 mM EDTA in PBS. […]
(§6) Neurotransmitter uptake assays were performed in a 96-well assay plate in a total volume of 400 μl assay buffer (Krebs-Ringer bicarbonate buffer containing HEPES (10 mM), CaCl2 (2.2 mM), ascorbic acid (200 μM) and pargyline (200 μM), pH 7.4) with 1.5×10^4 and 2.5×10^4 cells, for SERT, NET, and DAT, respectively. […] Non-specific neurotransmitter uptake was determined in the presence of 2.5 μM duloxetine, 2.5 μM desipramine, or 10 uM GBR-12909 (each in Dilution Buffer) for the hSERT, hNET, or hDAT assays, respectively. […]

hNET [7] = molecular target: T2, hNET (Homo sapiens, UniProt P23975); test: hNET membrane radioligand binding assay (3H-nisoxetine); conditions: 1.0 nM 3H-nisoxetine, HEK-293 hNET membranes; read-out: NET pKi (converted)
T2 construct: expressed in transfected cells; host or cells: HEK-293 derived cell line, stably transfected
T2 sequence (P23975 whole entry): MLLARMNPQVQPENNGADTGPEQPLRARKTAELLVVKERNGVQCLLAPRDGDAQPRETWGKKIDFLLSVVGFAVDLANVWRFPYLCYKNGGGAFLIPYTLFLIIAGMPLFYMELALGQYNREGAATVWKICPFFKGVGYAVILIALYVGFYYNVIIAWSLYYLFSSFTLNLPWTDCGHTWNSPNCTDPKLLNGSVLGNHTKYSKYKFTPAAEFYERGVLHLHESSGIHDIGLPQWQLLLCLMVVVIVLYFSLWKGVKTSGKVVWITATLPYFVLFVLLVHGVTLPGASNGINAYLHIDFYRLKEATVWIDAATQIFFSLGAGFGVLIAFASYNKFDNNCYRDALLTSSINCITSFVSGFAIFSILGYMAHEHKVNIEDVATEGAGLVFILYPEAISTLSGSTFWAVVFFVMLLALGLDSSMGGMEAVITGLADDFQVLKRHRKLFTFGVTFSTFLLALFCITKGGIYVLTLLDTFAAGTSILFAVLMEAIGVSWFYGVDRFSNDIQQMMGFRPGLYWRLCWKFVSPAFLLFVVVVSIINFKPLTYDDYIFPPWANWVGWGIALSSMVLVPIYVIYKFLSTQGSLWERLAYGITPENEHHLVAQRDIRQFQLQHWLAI
Experimental: as §1, §2, §3

hNET [8] = molecular target: T2, hNET; test: hNET neurotransmitter uptake assay (3H-NE); format: cell-based; conditions: 3H-NE 50 nM, HEK-293 hNET cells; read-out: norepinephrine reuptake inhibition pIC50 (converted)
Experimental: as §4, §5, §6

Row | deliquescence [1] | solubility (Aqueous solubility; aqueous HCl, simulated gastric fluid, HCl pH 2.0) [µg/mL] | solubility (Aqueous solubility; phosphate buffer, aqueous buffer, 50 mM phosphate-buffered pH 7.4) [µg/mL] | solubility (Aqueous solubility; un-buffered water) [µg/mL] | Change in HPLC Peak Area ([2]; 50 mM citric acid pH 2.2) [%] | Change in HPLC Peak Area ([2]; 50 mM phosphate-buffered pH 7.4) [%] | stability at room temperature ([2]; room temperature, 30 days, concentrations of 1 mg/mL and 10 mg/mL) | weight gain [3] | Ki (hSERT [5]) [nM] | IC50 (hSERT [6]) [nM] | Ki (hNET [7]) [nM] | IC50 (hNET [8]) [nM] | Structure (SMILES) | thermal stability (DSC) ([4]; heating 10° C./min from 22° C. to 250° C.) | weight loss (TGA) ([4]; room temperature to 200° C.)
1 | not to be deliquescent | > 10000 | > 10000 | > 10000 | 100.5 | 100.0 | no degradation | less than 1.0% | – | – | – | – | CC(C)[C@H](Oc1ccc(Cl)cc1)[C@H]1CCNC1 [Example 1, Crystalline Hydrochloride Salt of (S)-3-[(S)-1-(4-Chlorophenoxy)-2-methylpropyl]pyrrolidine] | no significant thermal decomposition below about 200 °C | did not lose any significant amount of weight
2 | – | – | – | – | – | – | – | – | ≤ 10 | ≤ 10 | ≤ 10 | ≤ 10 | CC(C)[C@H](Oc1ccc(Cl)cc1)[C@H]1CCNC1 [Example 1 (TFA salt), (S)-3-[(S)-1-(4-Chlorophenoxy)-2-methylpropyl]pyrrolidine] | – | –
